Source: ChEMBL document CHEMBL2095176, “GSK Tuberculosis Screening Data”
In brackets after ≈: the same amount, converted by molar mass.

System: Mycobacterium tuberculosis variant bovis BCG
Experiment: microbe, parasite or virus in culture
Assay type: functional

Structure (SMILES)	MIC90
O=C(Nc1nc(-c2ccccn2)cs1)c1ccc(-c2ccccc2F)o1	5.2 µM (≈ 1.9 µg/mL)
Cc1nnc(NCc2ccccc2)c2ccccc12	4.4 µM (≈ 1.1 µg/mL)
O=C(Nc1nnc(SCc2ccc(F)cc2)s1)c1ccccn1	4.6 µM (≈ 1.59 µg/mL)
Brc1c(-c2ccc3c(c2)OCO3)nc2ncccn12	2.4 µM (≈ 0.764 µg/mL)
Cn1c(=O)c(C(=O)NNC(=O)c2cccc(Cl)c2)c(O)c2ccccc21	5.3 µM (≈ 1.97 µg/mL)
O=C(Nc1ccc(-c2nc3ccccc3o2)cc1)c1cccnc1	4.5 µM (≈ 1.42 µg/mL)
CC(=O)Nc1ccc(S(=O)(=O)Nc2ccc(N3CCCCC3)cc2)cc1	5.2 µM (≈ 1.94 µg/mL)
O=C(Nc1nc(-c2ccccn2)cs1)c1ccco1	4.5 µM (≈ 1.22 µg/mL)
O=C(Nc1ccc(OC(F)(F)F)cc1)NC1CCCCC1	4.8 µM (≈ 1.45 µg/mL)
Brc1cncc(-c2cc(NCCCn3ccnc3)nc(-c3ccccc3)n2)c1	7.6 µM (≈ 3.31 µg/mL)
Cc1cc(NC(=O)COc2ccc(Cl)cc2)n(-c2nc(C)c(C)c(=O)[nH]2)n1	4.8 µM (≈ 1.86 µg/mL)
Cc1ccc(SCCC(=O)Nc2nc(-c3ccccn3)cs2)cc1	4.4 µM (≈ 1.56 µg/mL)
O=c1cc(N2CCCNCC2)c(Cl)nn1CCCNS(=O)(=O)c1cccc(-c2ccccc2)c1	4.3 µM (≈ 2.16 µg/mL)
O=C(Cc1ccc(Cl)cc1)Nc1nc(-c2ccccn2)cs1	4.3 µM (≈ 1.42 µg/mL)
CC(C)(C)c1ccc(C(=O)Nc2nnc(-c3ccco3)o2)cc1	4.3 µM (≈ 1.34 µg/mL)
O=C(NNC(=O)c1cccs1)c1ccc(-c2cccc(C(F)(F)F)c2)o1	4.3 µM (≈ 1.64 µg/mL)
COc1ccc(-c2ccc(Nc3cccc(S(=O)(=O)CCNCc4nccn4C)c3)nc2)cn1	4.3 µM (≈ 2.06 µg/mL)
O=C(c1ccc(-c2cccc(OCCN3CCC(c4ccccc4)CC3)c2)cc1)N1CCCC1	4.3 µM (≈ 1.95 µg/mL)
Cc1cc(C)c2cc(C#N)c(N3CCCNCC3)nc2c1	4.3 µM (≈ 1.21 µg/mL)
CCn1c(-c2nonc2N)nc2c(-c3cccc(Cl)c3)ncc(OCCCNCCc3c[nH]cn3)c21	4.3 µM (≈ 2.18 µg/mL)
O=C(Nc1ccc(C(F)(F)F)cc1)NC1CCCCC1	4.3 µM (≈ 1.23 µg/mL)
O=C(Nc1nnc(-c2ccc3c(c2)CCCC3)o1)c1ccc(Br)s1	4.3 µM (≈ 1.74 µg/mL)
CCc1ccc(C2CC(C(F)(F)F)n3ncc(C(=O)NCc4cccs4)c3N2)cc1 (stereo not given)	8.8 µM (≈ 3.82 µg/mL)
COCCN1CCN(c2ncc(-c3ccccc3OCc3cc(C)on3)cn2)CC1	4.4 µM (≈ 1.8 µg/mL)
CC(C)C(NC(=O)CCc1nc2ccccc2oc1=O)c1nc2ccccc2[nH]1 (stereo not given)	4.4 µM (≈ 1.72 µg/mL)
CCCCOc1ccc(S(=O)(=O)NCCCn2nc(Cl)c(N3CCCNCC3)cc2=O)cc1	4.4 µM (≈ 2.19 µg/mL)
COc1ccc2c(ccn2C(=O)OCCC2CCNCC2)c1	4.4 µM (≈ 1.33 µg/mL)

Structure (SMILES)	MIC90
O=C(c1ccc(-c2cccc(OCCN3CCC(c4ccc(F)cc4)CC3)c2)cc1)N1CCCC1	4.4 µM (≈ 2.08 µg/mL)
O=C(NNC(=O)c1cccs1)c1ccc(Oc2ccccc2)cc1	4.4 µM (≈ 1.49 µg/mL)
COc1ccc(CCNc2nccc(-c3cccc(OC4CCNCC4)c3)n2)cc1	4.4 µM (≈ 1.78 µg/mL)
Nc1nc(SCc2cccc(F)c2F)nc2[nH]c(=O)cnc12	4.4 µM (≈ 1.41 µg/mL)
CCN(Cc1nc2ccccc2c(=O)[nH]1)C1CCCc2cccnc21 (stereo not given)	4.4 µM (≈ 1.47 µg/mL)
Cc1ccc(C(=O)N2N=C(C(F)(F)F)CC2(O)c2ccncc2)cc1 (stereo not given)	4.4 µM (≈ 1.54 µg/mL)
Cc1ccc(-c2nnc(NC(=O)c3cccc(C(F)(F)F)c3)o2)c(C)c1	4.4 µM (≈ 1.59 µg/mL)
O=C(NNC(=O)c1cccs1)c1cnn(-c2ccccc2)n1	4.5 µM (≈ 1.41 µg/mL)
O=C(c1[nH]nc2c1CCCC2)N1CCN(Cc2ccc3c(c2)OCO3)CC1	3.9 µM (≈ 1.44 µg/mL)
O=c1cc(N2CCCNCC2)c(Cl)nn1CCCNS(=O)(=O)c1ccc(-c2ccccc2)cc1	4.6 µM (≈ 2.31 µg/mL)
O=C(COc1ccc(Br)cc1Cl)Nc1nc(-c2ccccn2)cs1	4.6 µM (≈ 1.95 µg/mL)
CC1(C(=O)Nc2cccc3cccnc23)CCN1CC1CC1 (stereo not given)	4.6 µM (≈ 1.36 µg/mL)
Cc1cc(C(=O)Nc2nc(-c3ccccn3)cs2)no1	4.6 µM (≈ 1.32 µg/mL)
Cn1nc(C(=O)N2CCc3sccc3C2c2cccs2)c2ccccc2c1=O (stereo not given)	4.6 µM (≈ 1.87 µg/mL)
Cn1cc(C(=O)NCCc2ccccc2)c(=O)c2cc(S(=O)(=O)N3CCCC3)ccc21	4.6 µM (≈ 2.02 µg/mL)
O=C(Nc1ccc(C(=O)Nc2cccc(C3=NCCN3)c2)cc1)Nc1ccc(C2=NCCN2)cc1	4.6 µM (≈ 2.15 µg/mL)
CCOc1cc(CC)c(Br)cc1C(=O)Nc1cccc2c1CCN(C)C2	4.6 µM (≈ 1.92 µg/mL)
O=C(C=Cc1ccco1)N1CCN(Cc2ccc3c(c2)OCO3)CC1	7 µM (≈ 2.38 µg/mL)
CCc1ccc(S(=O)(=O)Nc2cc(CN3CCN(CCC(C)C)CC3)ccc2C)cc1.O=C(O)C(F)(F)F.O=C(O)C(F)(F)F	6.3 µM
Cn1ccnc1CNCCS(=O)(=O)c1cccc(Nc2ccc(-c3cccc(F)c3)cn2)c1	4.3 µM (≈ 2 µg/mL)
Cc1cc(C)n(-c2nc(C)c(Br)c(N(C)CCO)n2)n1	4.7 µM (≈ 1.6 µg/mL)
FC(F)(F)c1cc(N2CCCNCC2)c2ccccc2n1	4.7 µM (≈ 1.39 µg/mL)
CN(Cc1nc2ccccc2s1)C(=O)c1ccc2c(c1)CC(c1ccccc1)OC2=O (stereo not given)	4.7 µM (≈ 2.01 µg/mL)
COc1ccc(-c2nsc(NC(=O)COc3ccc(C)cc3)n2)cc1OC	4.7 µM (≈ 1.81 µg/mL)
c1ccc(-c2ccc(CN3CCC4(CC3)OCCc3sccc34)s2)cc1	4.7 µM (≈ 1.79 µg/mL)
O=c1oc2ccccc2nc1CS(=O)(=O)c1ccc(Br)cc1	4.7 µM (≈ 1.79 µg/mL)
C[C@H]1CN(Cc2cccc(-c3cc(CNC(=O)c4ccc(CC5CCNCC5)cc4)ccc3F)c2)CCN1	4.7 µM (≈ 2.42 µg/mL)

Structure (SMILES)	MIC90
O=C(CSc1ccc(Cl)cc1)Nc1nc(-c2ccccn2)cs1	4.7 µM (≈ 1.7 µg/mL)
c1ncn(-c2ccc(COc3ccc(-n4cncn4)cc3)cc2)n1	6.8 µM (≈ 2.16 µg/mL)
FC(F)(F)c1ccc2c(N3CCCNCC3)ncc(-c3ccccc3)c2n1	4.8 µM (≈ 1.79 µg/mL)
COc1ccc(-c2nc(C(=O)N3CCCCC3c3nc4ccccc4s3)cs2)cc1 (stereo not given)	4.8 µM (≈ 2.09 µg/mL)
CCc1ccc(C2CC(C(F)(F)F)n3ncc(C(=O)NCc4ccc5c(c4)OCO5)c3N2)cc1 (stereo not given)	4.8 µM (≈ 2.27 µg/mL)
CCOc1ccc(-n2nc3c(C)nnc(NCc4ccccc4)c3c2C)cc1	4.8 µM (≈ 1.79 µg/mL)
O=C(CSc1ccc(Cl)cc1)NNC(=O)c1cccs1	4.8 µM (≈ 1.57 µg/mL)
CC(C)n1ncc2c(C(=O)NCC(c3cccs3)N3CCOCC3)cc(-c3ccccc3)nc21 (stereo not given)	2.5 µM (≈ 1.19 µg/mL)
O=C(OCc1c(F)cccc1Cl)c1ccc(-n2ncc(Cl)c(Cl)c2=O)cc1	3.7 µM (≈ 1.58 µg/mL)
O=C(NCc1ccccc1)N1CCN(Cc2ccc3c(c2)OCO3)CC1	4.9 µM (≈ 1.73 µg/mL)
CCc1ccc([C@@H]2C[C@H](C(F)(F)F)n3ncc(C(=O)NCc4ccc(OC)cc4)c3N2)cc1	2.7 µM (≈ 1.24 µg/mL)
Cc1ccc(-c2nnc(NC(=O)c3cccc(F)c3)o2)cc1C	5 µM (≈ 1.56 µg/mL)
Cc1sc2nc(C3CC3)n(C3CCN(CC(=O)N4CCCC4)CC3)c(=O)c2c1C	5 µM (≈ 2.07 µg/mL)
CCCNc1cc(-c2ccccc2)nc(-n2nc(C)cc2C)n1	5 µM (≈ 1.54 µg/mL)
O=C(CC1NC(=O)c2ccccc21)Nc1cccc(-c2cc(-c3c(Cl)cccc3Cl)no2)c1 (stereo not given)	5 µM (≈ 2.39 µg/mL)
Cc1ccc2nc(C)c(-c3ccn(Cc4ccccc4)n3)n2c1	5.9 µM (≈ 1.78 µg/mL)
CCCc1cc(N2CCN(CC#N)CC2)n2ncc(-c3ccccc3)c2n1	5.1 µM (≈ 1.84 µg/mL)
O=C(CCc1cc2ccccc2o1)NNC(=O)c1cccs1	5.1 µM (≈ 1.6 µg/mL)
Clc1cc(N2CCN(c3ccncc3)CC2)ncn1	5.1 µM (≈ 1.41 µg/mL)
CCSc1cccc(C(=O)Nc2nnc(-c3ccc(C)cc3C)o2)c1	5.2 µM (≈ 1.84 µg/mL)
CCS(=O)(=O)c1cccc(C(=O)Nc2nc(-c3ccccn3)cs2)c1	5.2 µM (≈ 1.94 µg/mL)
O=C(Nc1nc(-c2ccccn2)cs1)c1cccc(S(=O)(=O)N2CCCCC2)c1	5.2 µM (≈ 2.23 µg/mL)
O=C(Nc1ccccc1-c1nc(Cl)cs1)OCC1CCNCC1	5.2 µM (≈ 1.83 µg/mL)
Cc1nn(Cc2ccccc2)c(Cl)c1C(=O)NC1CCCCCC1	3.2 µM (≈ 1.11 µg/mL)
Fc1ccccc1-c1noc(N2CCN(Cc3ccc4c(c3)OCO4)CC2)n1	6.7 µM (≈ 2.56 µg/mL)
N=C(Nc1nc(-c2ccccn2)cc2ccccc12)c1cccc(Cl)c1	0.6 µM (≈ 0.215 µg/mL)
